Patent US10646469B2, “Substituted indole derivatives as dengue viral replication inhibitors” (Janssen Pharmaceuticals, Inc., priority 2016, dated 2020)

What was measured:
DENV-4 strain H241 = test: Tetravalent RT-qPCR assay, serotype 4; format: cell-based; settings: Dengue virus, DENV4, 72 h; RT-qPCR serotype 4 H241, Protocol A, Vero cells, day 3
Procedure: (§1) The antiviral activity of the compounds of the invention was tested against DENV-1 strain TC974 #666 (NCPV), DENV-2 strain 16681, DENV-3 strain H87 (NCPV) and DENV-4 strain H241 (NCPV) in a RT-qPCR assay. Therefore, Vero cells were infected with either DENV-1, or -2, or -3, or -4 in the presence or absence of test compounds. At day 3 post-infection, the cells were lysed and cell lysates were used to prepare cDNA of both a viral target (the 3′UTR of DENV; Table 2) and cellular reference gene (β-actin, Table 2). Subsequently, a duplex real time PCR was performed on a Lightcycler480 instrument. The generated Cp value is inversely proportional to the amount of RNA expression of these targets. Inhibition of DENV replication by a test compound results in a shift of Cp's for the 3′UTR gene. On the other hand, if a test compound is toxic to the cells, a similar effect on β-actin expression will be observed. The comparative ΔΔCp method is used to calculate EC50, which is based on the relative gene expression of the target gene (3′UTR) normalized with the cellular housekeeping gene (β-actin). In addition, CC50 values are determined based on the Cp values acquired for the housekeeping gene β-actin.
(§2) The culture medium consisted of minimal essential medium supplemented with 2% of heat-inactivated fetal calf serum, 0.04% gentamycin (50 mg/mL) and 2 mM of L-glutamine. Vero cells, obtained from ECACC, were suspended in culture medium and 75 μL/well was added in 96-well plates (10000 cells/well), which already contain the antiviral compounds. […] In addition, each plate contains wells which are assigned as virus controls (containing cells and virus in the absence of compound) and cell controls (containing cells in the absence of virus and compound). Once the cells were added in the plates, the plates were incubated in a fully humidified incubator (37° C., 5% CO2) until the next day. Dengue viruses serotype-1, 2, 3 and 4 were diluted in order to obtain a Cp of ˜22-24 in the assay. Therefore, 25 μL of virus suspension was added to all the wells containing test compound and to the wells assigned as virus control. In parallel, 25 μL of culture medium was added to the cell controls. Next, the plates were incubated for 3 days in a fully humidified incubator (37° C., 5% CO2). After 3 days, the supernatant was removed from the wells and the cells were washed twice with ice-cold PBS (˜100 μL). The cell pellets within the 96-well plates were stored at −80° C. for at least 1 day. Next, RNA was extracted using the Cells-to-CT™ lysis kit, according to the manufacturer's guideline (Life Technologies). The cell lysates can be stored at −80° C. or immediately used in the reverse transcription step.
(§3) In preparation of the reverse transcription step, mix A (table 3A) was prepared and 7.57 μL/well was dispensed in a 96-well plate. After addition of 5 μL of the cell lysates, a five minute denaturation step at 75° C. was performed (table 3B). Afterwards, 7.43 μL of mix B was added (table 3C) and the reverse transcription step was initiated (table 3D) to generate cDNA.
(§4) Finally, a RT-qPCR mix was prepared, mix C (table 4A), and 22.02 μL/well was dispensed in 96-well LightCycler qPCR plates to which 3 μL of cDNA was added and the qPCR was performed according to the conditions in table 4B on a LightCycler 480.
(§5) Using the LightCycler software and an in-house LIMS system, dose response curves for each compound were calculated and the half maximal effective concentration (EC50) and the half maximal cytotoxic concentration (CC50) were determined (Tables 5-8).

DENV-2 strain 16681 = test: Tetravalent RT-qPCR assay, serotype 2; format: cell-based; settings: Dengue virus, DENV2, 72 h; RT-qPCR serotype 2 16681, Protocol A, Vero cells, day 3
Procedure: as §1, §2, §3, §4, §5

DENV-2 16681 strain = test: DENV-2 antiviral assay (eGFP-labeled virus in Vero cells); format: cell-based, Dengue virus; settings: DENV-2 16681 eGFP, MOI 0.5, 3 days
Procedure: The antiviral activity of all the compounds of the invention was tested against the DENV-2 16681 strain which was labeled with enhanced green fluorescent protein (eGPF). The culture medium consists of minimal essential medium supplemented with 2% of heat-inactivated fetal calf serum, 0.04% gentamycin (50 mg/mL) and 2 mM of L-glutamine. Vero cells, obtained from ECACC, were suspended in culture medium and 25 μL was added to 384-well plates (2500 cells/well), which already contain the antiviral compounds. Typically, these plates contain a 5-fold serial dilution of 9 dilution steps of the test compound at 200 times the final concentration in 100% DMSO (200 nL). […] Finally, each plate contains wells which are assigned as virus controls (containing cells and virus in the absence of compound), cell controls (containing cells in the absence of virus and compound) and medium controls (containing medium in the absence of cells, virus and compounds). To the wells assigned as medium control, 25 μL of culture medium was added instead of Vero cells. Once the cells were added to the plates, the plates were incubated for 30 minutes at room temperature to allow the cells to distribute evenly within the wells. Next, the plates were incubated in a fully humidified incubator (37° C., 5% CO2) until the next day. Then, DENV-2 strain 16681, labeled with eGFP, was added at a multiplicity of infection (MOI) of 0.5. Therefore, 15 μL of virus suspension was added to all the wells containing test compound and to the wells assigned as virus control. In parallel, 15 μL of culture medium was added to the medium and cell controls. Next, the plates were incubated for 3 days in a fully humidified incubator (37° C., 5% CO2). At the day of the read out, the eGFP fluorescence was measured using an automated fluorescence microscope at 488 nm (blue laser). Using an in-house LIMS system, inhibition dose response curves for each compound were calculated and the half maximal effective concentration (EC50) was determined. Therefore, the percent inhibition (I) for every test concentration is calculated using the following formula: I=100*([…])/(SVC−SCC); ST, SCC and SVC are the amount of eGFP signal in the test compound, cell control and virus control wells, respectively. The EC50 represents the concentration of a compound at which the virus replication is inhibited with 50%, as measured by a 50% reduction of the eGFP fluorescent intensity compared to the virus control. The EC50 is calculated using linear interpolation (Table 1).

[1] = Toxicity on the same plates (ATPlite cell viability); settings: African green monkey, CC50, Vero cells, same plates as DENV-2 antiviral assay
[2] = Cytotoxicity in RT-qPCR assay (Cp of housekeeping gene β-actin); format: cell-based; settings: African green monkey
Procedure: as §1, §2, §5

DENV-3 strain H87 = test: Tetravalent RT-qPCR assay, serotype 3; format: cell-based; settings: Dengue virus, DENV3, 72 h; RT-qPCR serotype 3 H87, Protocol A, Vero cells, day 3
Procedure: as §1, §2, §3, §4, §5

DENV-1 strain TC974 #666 = test: Tetravalent RT-qPCR assay, serotype 1; format: cell-based; settings: Dengue virus, DENV1, 72 h; RT-qPCR serotype 1 TC974#666, Protocol A, Vero cells, day 3
Procedure: as §1, §2, §3, §4, §5

Vero cells = test: Toxicity on the same plates (ATPlite cell viability); settings: Vero cells, same plates as DENV-2 antiviral assay
[3] = RT-qPCR serotype 1 TC974#666, Protocol A
[4] = RT-qPCR serotype 2 16681, Protocol A
[5] = RT-qPCR serotype 3 H87, Protocol A
[6] = RT-qPCR serotype 4 H241, Protocol A

SMILES	EC50 (DENV-4 strain H241)	EC50 (DENV-2 strain 16681)	EC50 (DENV-2 16681 strain)	CC50 [1]	CC50 at 3 days [2, 3]	CC50 at 3 days [2, 4]	CC50 at 3 days [2, 5]	CC50 at 3 days [2, 6]	EC50 (DENV-3 strain H87)	EC50 (DENV-1 strain TC974 #666)	CC50 (Vero cells)
COc1cc(NC(C(=O)c2c[nH]c3cc(OC)c(C(F)(F)F)cc23)c2ccc(F)cc2OC)cc(OCCO)c1 (single isomer, unassigned) [Compound 2A, 2-(4-fluoro-2-methoxyphenyl)-2-((3-(2-hydroxyethoxy)-5-methoxyphenyl)amino)-1-(6-methoxy-5-(trifluoromethyl)-1H-indol-3-yl)ethanone]	62 nM	0.25 nM	0.45 nM	3.5 µM	> 2500 nM	3200 nM	> 1900 nM	> 2100 nM	19 nM	2.2 nM	–
COc1cc(NC(C(=O)c2c[nH]c3ccc(OC(F)(F)F)cc23)c2ccc(F)cc2OC)cc(OCCO)c1 (single isomer, unassigned) [Compound 5B, 2-(4-fluoro-2-methoxyphenyl)-2-((3-(2-hydroxyethoxy)-5-methoxyphenyl)amino)-1-(5-(trifluoromethoxy)-1H-indol-3-yl)ethanone]	50 nM	0.36 nM	0.3 nM	–	> 2500 nM	3200 nM	> 2500 nM	2400 nM	6 nM	0.77 nM	3300 nM
COc1cc(NC(C(=O)c2c[nH]c3cc(F)c(OC(F)(F)F)cc23)c2ccc(Cl)cc2OC)cc(OCCO)c1 (single isomer, unassigned) [Compound 15B, 2-(4-chloro-2-methoxyphenyl)-1-(6-fluoro-5-(trifluoromethoxy)-1H-indol-3-yl)-2-((3-(2-hydroxyethoxy)-5-methoxyphenyl)amino)ethanone]	31 nM	0.15 nM	0.29 nM	–	1500 nM	> 2100 nM	> 2400 nM	1600 nM	3.2 nM	0.46 nM	2600 nM
COc1cc(NC(C(=O)c2c[nH]c3cc(OC)c(OC(F)(F)F)cc23)c2ccc(Cl)cc2OC)cc(OCCO)c1 (single isomer, unassigned) [Compound 14A, 2-(4-chloro-2-methoxyphenyl)-2-((3-(2-hydroxyethoxy)-5-methoxyphenyl)amino)-1-(6-methoxy-5-(trifluoromethoxy)-1H-indol-3-yl)ethanone]	25 nM	0.17 nM	0.17 nM	–	> 2100 nM	3800 nM	> 2300 nM	1600 nM	5.1 nM	0.92 nM	2500 nM
COc1cc(NC(C(=O)c2c[nH]c3cc(OC)c(OC(F)(F)F)cc23)c2ccc(F)cc2OC)cc(OCCO)c1 (single isomer, unassigned) [Compound 6A, 2-(4-fluoro-2-methoxyphenyl)-2-((3-(2-hydroxyethoxy)-5-methoxyphenyl)amino)-1-(6-methoxy-5-(trifluoromethoxy)-1H-indol-3-yl)ethanone]	78 nM	0.55 nM	0.33 nM	–	> 2100 nM	3900 nM	> 2500 nM	1500 nM	12 nM	2.6 nM	> 2500 nM
COc1cc(NC(C(=O)c2c[nH]c3cc(F)c(C(F)(F)F)cc23)c2ccc(F)cc2OC)cc(OCCO)c1 (single isomer, unassigned) [Compound 3A, 2-(4-fluoro-2-methoxyphenyl)-1-(6-fluoro-5-(trifluoromethyl)-1H-indol-3-yl)-2-((3-(2-hydroxyethoxy)-5-methoxyphenyl)amino)ethanone]	62 nM	0.46 nM	0.47 nM	–	> 2500 nM	2600 nM	> 2500 nM	> 2500 nM	18 nM	2.1 nM	2400 nM
COc1cc(NC(C(=O)c2c[nH]c3c(C)cc(C(F)(F)F)cc23)c2ccc(Cl)cc2OC)cc(OCCO)c1 (single isomer, unassigned) [Compound 12A, 2-(4-chloro-2-methoxyphenyl)-2-((3-(2-hydroxyethoxy)-5-methoxyphenyl)amino)-1-(7-methyl-5-(trifluoromethyl)-1H-indol-3-yl)ethanone]	30 nM	0.22 nM	0.16 nM	–	> 2500 nM	> 2500 nM	> 2500 nM	> 2400 nM	3.9 nM	0.4 nM	2600 nM
COc1cc(NC(C(=O)c2c[nH]c3c(C)cc(C(F)(F)F)cc23)c2ccc(F)cc2OC)cc(OCCO)c1 (single isomer, unassigned) [Compound 4B, 2-(4-fluoro-2-methoxyphenyl)-2-((3-(2-hydroxyethoxy)-5-methoxyphenyl)amino)-1-(7-methyl-5-(trifluoromethyl)-1H-indol-3-yl)ethanone]	51 nM	0.36 nM	0.46 nM	–	> 2500 nM	> 2400 nM	> 2500 nM	> 2100 nM	9.2 nM	1.4 nM	2500 nM
